Test results from PubChem BioAssay AID1963430 (Molecular Pharmacology Branch, DTP, NCI, 2024).
Values joined by “and” are separate entries in the source; they are usually repeats but may differ in a detail not shown here. Equal entries are not always repeated. Each block holds one compound with its values, some of them ahead of it.

Tested on: 521955-158-R2-J5-PDC complex spheroid growth, % test/control
Assay: Anticancer human tumor 521955-158-R2-J5-PDC patient-derived pancreatic carcinoma cell line growth inhibition [Asc]
Details: for viability, T/C: stronger effect = lower value
Outline: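 Concentration series start at each agent's clinical Cmax, or at 10 microM when none is established, and drop in half-log steps; agents are applied alone or together to complex spheroids built with HUVEC and hMSC.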

[1] = curve of first compound, second compound 0.1 µM
[2] = curve of first compound, second compound 0.316 µM
[3] = curve of first compound, second compound 1 µM
[4] = second compound 0.1 µM, first compound 0.00316 µM
[5] = second compound 0.1 µM, first compound 0.01 µM
[6] = second compound 0.1 µM, first compound 0.0316 µM
[7] = second compound 0.1 µM, first compound 0.1 µM
[8] = second compound 0.316 µM, first compound 0.00316 µM
[9] = second compound 0.316 µM, first compound 0.01 µM
[10] = second compound 0.316 µM, first compound 0.0316 µM
[11] = second compound 0.316 µM, first compound 0.1 µM
[12] = second compound 1 µM, first compound 0.00316 µM
[13] = second compound 1 µM, first compound 0.01 µM
[14] = second compound 1 µM, first compound 0.0316 µM
[15] = second compound 1 µM, first compound 0.1 µM
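Note: spheroids exposed to agents for 7 days before readout.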
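Throughout, for viability, T/C: 100% = DMSO vehicle control viability.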

IC50 (curve of first compound, second compound 0.03 µM): > 100 nM
IC50 (curve of first compound, second compound 0.0949 µM): > 100 nM
IC50 (curve of first compound, second compound 0.3 µM): > 100 nM
IC50 (curve of first compound, second compound 0.949 µM): > 100 nM
IC50 (curve of first compound, second compound 3 µM): > 100 nM
Compound: NC1CCC(NC2CC2c2ccccc2)CC1 (stereo not given) + CCN1C(C(=O)NC23CCC(C(=O)O)(CC2)CC3)C(c2cccc(Cl)c2F)C2(C(=O)Nc3cc(Cl)ccc32)C12CCCCC2
viability, T/C (second compound 0.03 µM, first compound 0.000316 µM): 59%
viability, T/C (second compound 0.03 µM, first compound 0.001 µM): 52.7%
viability, T/C (second compound 0.03 µM, first compound 0.00316 µM): 64.8%
viability, T/C (second compound 0.03 µM, first compound 0.01 µM): 59.2%
viability, T/C (second compound 0.03 µM, first compound 0.0316 µM): 57.4%
viability, T/C (second compound 0.03 µM, first compound 0.1 µM): 46.1%
viability, T/C (second compound 0.0949 µM, first compound 0.000316 µM): 55.9%
viability, T/C (second compound 0.0949 µM, first compound 0.001 µM): 55.1%
viability, T/C (second compound 0.0949 µM, first compound 0.00316 µM): 69.4%
viability, T/C (second compound 0.0949 µM, first compound 0.01 µM): 59.3%
viability, T/C (second compound 0.0949 µM, first compound 0.0316 µM): 65%
viability, T/C (second compound 0.0949 µM, first compound 0.1 µM): 65.8%
viability, T/C (second compound 0.3 µM, first compound 0.000316 µM): 58.5%
viability, T/C (second compound 0.3 µM, first compound 0.001 µM): 44.1%
viability, T/C (second compound 0.3 µM, first compound 0.00316 µM): 58.8%
viability, T/C (second compound 0.3 µM, first compound 0.01 µM): 65.8%
viability, T/C (second compound 0.3 µM, first compound 0.0316 µM): 48.8%
viability, T/C (second compound 0.3 µM, first compound 0.1 µM): 71.4%
viability, T/C (second compound 0.949 µM, first compound 0.000316 µM): 58.5%
viability, T/C (second compound 0.949 µM, first compound 0.001 µM): 66.8%
viability, T/C (second compound 0.949 µM, first compound 0.00316 µM): 74%
viability, T/C (second compound 0.949 µM, first compound 0.01 µM): 67.5%
viability, T/C (second compound 0.949 µM, first compound 0.0316 µM): 62.5%
viability, T/C (second compound 0.949 µM, first compound 0.1 µM): 77.4%
viability, T/C (second compound 3 µM, first compound 0.000316 µM): 84.7%
viability, T/C (second compound 3 µM, first compound 0.001 µM): 109%
viability, T/C (second compound 3 µM, first compound 0.00316 µM): 83.1%
viability, T/C (second compound 3 µM, first compound 0.01 µM): 113%
viability, T/C (second compound 3 µM, first compound 0.0316 µM): 92.8%
viability, T/C (second compound 3 µM, first compound 0.1 µM): 91.7%

IC50 [1]: 2.46 nM
IC50 [2]: < 0.316 nM
IC50 [3]: < 0.316 nM
IC50 (curve of first compound, second compound 3.16 µM): < 0.316 nM
IC50 (curve of first compound, second compound 10 µM): 22.1 nM
Compound: NC1CCC(NC2CC2c2ccccc2)CC1 (stereo not given) + Cc1c(S(C)(=O)=O)c(-c2cc(F)cc(N3CCN(c4ccc(NS(=O)(=O)c5ccc(NC(CCN6CCC(C(=O)OCCCP(=O)(O)O)CC6)CSc6ccccc6)c(S(=O)(=O)C(F)(F)F)c5)cc4)CC3)c2)c(-c2ccc(Cl)cc2)n1C(C)C
viability, T/C (second compound 0.1 µM, first compound 0.000316 µM): 58%
viability, T/C (second compound 0.1 µM, first compound 0.001 µM): 46.2%
viability, T/C [4]: 56.8%
viability, T/C [5]: 48.5%
viability, T/C [6]: 37.8%
viability, T/C [7]: 48.4%
viability, T/C (second compound 0.316 µM, first compound 0.000316 µM): 40.8%
viability, T/C (second compound 0.316 µM, first compound 0.001 µM): 36.3%
viability, T/C [8]: 47.8%
viability, T/C [9]: 38.4%
viability, T/C [10]: 46%
viability, T/C [11]: 49%
viability, T/C (second compound 1 µM, first compound 0.000316 µM): 27.9%
viability, T/C (second compound 1 µM, first compound 0.001 µM): 33.9%
viability, T/C [12]: 34.6%
viability, T/C [13]: 34.8%
viability, T/C [14]: 39.7%
viability, T/C [15]: 34.6%
viability, T/C (second compound 3.16 µM, first compound 0.000316 µM): 41.6%
viability, T/C (second compound 3.16 µM, first compound 0.001 µM): 32.8%
viability, T/C (second compound 3.16 µM, first compound 0.00316 µM): 25.4%
viability, T/C (second compound 3.16 µM, first compound 0.01 µM): 26.5%
viability, T/C (second compound 3.16 µM, first compound 0.0316 µM): 30.7%
viability, T/C (second compound 3.16 µM, first compound 0.1 µM): 33.9%
viability, T/C (second compound 10 µM, first compound 0.000316 µM): 58%
viability, T/C (second compound 10 µM, first compound 0.001 µM): 48.3%
viability, T/C (second compound 10 µM, first compound 0.00316 µM): 31.8%
viability, T/C (second compound 10 µM, first compound 0.01 µM): 71.6%
viability, T/C (second compound 10 µM, first compound 0.0316 µM): 44.7%
viability, T/C (second compound 10 µM, first compound 0.1 µM): 39.1%

IC50 (curve of compound): > 100 nM
Compound: Cn1ncnc1[C@H]1c2n[nH]c(=O)c3cc(F)cc(c23)N[C@@H]1c1ccc(F)cc1
viability, T/C (compound 0.000316 µM): 106% and 99.6% and 79.6%
viability, T/C (compound 0.001 µM): 81.4% and 87.9% and 79.3%
viability, T/C (compound 0.00316 µM): 68.4% and 93.3% and 73.6%
viability, T/C (compound 0.01 µM): 76.5% and 83.7% and 68.9%
viability, T/C (compound 0.0316 µM): 81.5% and 76.8% and 63.5%
viability, T/C (compound 0.1 µM): 57.7% and 68.6% and 70.2%

IC50 (compound alone, run of 10/03/2022): > 1000 nM
IC50 (curve of compound): > 1000 nM
Compound: CNC(C)C(=O)NC1CN(S(=O)(=O)c2cccc(S(=O)(=O)N3CCC4CCC(C(=O)NC(c5ccccc5)c5ccccc5)N4C(=O)C(NC(=O)C(C)NC)C3)c2)CCC2CCC(C(=O)NC(c3ccccc3)c3ccccc3)N2C1=O (stereo not given)
viability, T/C (compound 0.00316 µM): 72.5% and 68.6%

IC50 (curve of first compound, second compound 0.01 µM): 15.7 nM
IC50 (curve of first compound, second compound 0.0316 µM): 18.4 nM
IC50 [1]: 14.5 nM
IC50 [2]: 26.6 nM
IC50 [3]: 15.8 nM
Compound: O=C(c1ccc(F)c(F)c1Nc1ccc(I)cc1F)N1CC(O)([C@@H]2CCCCN2)C1 + CNC(C)C(=O)NC1CN(S(=O)(=O)c2cccc(S(=O)(=O)N3CCC4CCC(C(=O)NC(c5ccccc5)c5ccccc5)N4C(=O)C(NC(=O)C(C)NC)C3)c2)CCC2CCC(C(=O)NC(c3ccccc3)c3ccccc3)N2C1=O
viability, T/C (second compound 0.01 µM, first compound 0.00316 µM): 61.2%
viability, T/C (second compound 0.01 µM, first compound 0.01 µM): 57.2%
viability, T/C (second compound 0.01 µM, first compound 0.0316 µM): 38.5%
viability, T/C (second compound 0.01 µM, first compound 0.1 µM): 35.7%
viability, T/C (second compound 0.01 µM, first compound 0.316 µM): 17.7%
viability, T/C (second compound 0.01 µM, first compound 1 µM): 20.2%
viability, T/C (second compound 0.0316 µM, first compound 0.00316 µM): 76.8%
viability, T/C (second compound 0.0316 µM, first compound 0.01 µM): 56.4%
viability, T/C (second compound 0.0316 µM, first compound 0.0316 µM): 46.5%
viability, T/C (second compound 0.0316 µM, first compound 0.1 µM): 26.9%
viability, T/C (second compound 0.0316 µM, first compound 0.316 µM): 25.5%
viability, T/C (second compound 0.0316 µM, first compound 1 µM): 18.8%
viability, T/C [4]: 66.4%
viability, T/C [5]: 44.7%
viability, T/C [6]: 53.5%
viability, T/C [7]: 29.4%
viability, T/C (second compound 0.1 µM, first compound 0.316 µM): 19.7%
viability, T/C (second compound 0.1 µM, first compound 1 µM): 20.8%
viability, T/C [8]: 61.6%
viability, T/C [9]: 60.3%
viability, T/C [10]: 48%
viability, T/C [11]: 28%
viability, T/C (second compound 0.316 µM, first compound 0.316 µM): 18.9%
viability, T/C (second compound 0.316 µM, first compound 1 µM): 18.3%
viability, T/C [12]: 67.1%
viability, T/C [13]: 53.4%
viability, T/C [14]: 43.5%
viability, T/C [15]: 28.2%
viability, T/C (second compound 1 µM, first compound 0.316 µM): 17.4%
viability, T/C (second compound 1 µM, first compound 1 µM): 17.3%
